# Assays:
# [1] = biological target: BSA (Bos taurus, UniProt P02769); assay: Protein binding ratio by centrifugal ultrafiltration (30-kDa cutoff); conditions: 50 ppm toxin, BSA 4-40 g L^−1 in PBS buffer
# [2] = comparison value for the anticoagulant; cited from earlier work
# Chain of BSA (P02769 25-607): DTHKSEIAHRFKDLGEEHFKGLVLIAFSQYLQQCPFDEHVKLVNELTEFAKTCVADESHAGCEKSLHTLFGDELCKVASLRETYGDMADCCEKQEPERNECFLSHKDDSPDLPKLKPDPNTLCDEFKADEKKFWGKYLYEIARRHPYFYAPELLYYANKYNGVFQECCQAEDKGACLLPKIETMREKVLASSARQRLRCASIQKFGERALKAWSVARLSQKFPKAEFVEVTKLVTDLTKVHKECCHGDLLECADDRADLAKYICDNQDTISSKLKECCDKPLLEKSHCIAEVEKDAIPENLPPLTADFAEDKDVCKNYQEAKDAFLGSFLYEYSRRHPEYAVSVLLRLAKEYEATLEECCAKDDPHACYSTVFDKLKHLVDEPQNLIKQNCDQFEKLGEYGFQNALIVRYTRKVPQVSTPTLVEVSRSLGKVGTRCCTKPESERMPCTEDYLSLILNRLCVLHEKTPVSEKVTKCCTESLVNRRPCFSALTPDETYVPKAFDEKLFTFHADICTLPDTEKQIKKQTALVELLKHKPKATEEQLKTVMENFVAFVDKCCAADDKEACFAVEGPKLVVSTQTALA
Compound,estimated protein-binding ratio [1],zeta potential [2]
"CN1CC(=O)NC1=N [CRT, creatinine]",1.0-2.1%,
"O=C(O)CNC(=O)c1ccccc1 [HA, hippuric acid]",18.3-36.9%,
"Cc1ccc(O)cc1 [PC, p-cresol]",89.4-94.4%,
heparin,,−39 mV

# Reference: patent US12076694B2, “Method of removing protein-bound substances by electrically conductive polymer” (Ming Chi University of Technology, priority 2019, dated 2024)
